Data reported in US7767645B2, “SH2 domain binding inhibitors” (The United States of America as represented by the …, priority 2003, dated 2010).
pIC50, pKd: −log10 of the molar value.

What was measured:
[1] = biological target: T1, Grb2 SH2 domain protein (b-Grb2) (Homo sapiens, UniProt P62993); experiment: Surface Plasmon Resonance (SPR) determination of Grb2 SH2 domain-binding Kd values; details: BIACORE S51, immobilized biotinylated Grb2 SH2 domain, 25° C., PBS pH 7.4
T1 construct: All Biotinylated Grb2 SH2 domain protein (b-Grb2) was expressed and purified; biotin (biotinylated)
Procedure: Binding affinities were determined as follows. Surface Plasmon Resonance (SPR) Determination of Grb2 SH2 Domain-Binding Kd Values. Binding experiments were performed on a BIACORE S51 instrument (Biacore Inc., Piscataway N.J.). All Biotinylated Grb2 SH2 domain protein (b-Grb2) was expressed and purified (Protein Expression Laboratory and The Protein Chemistry Laboratory, SAIC—Frederick). The b-Grb2 was immobilized onto carboxymethyl 5′ dextran surface (CM5 sensor chip, Biacore Inc.) by amine coupling. The lyophilized b-Grb2 was reconstituted in fifty percent DMSO in H2O to make a stock solution of 1 mg/mL and stored at −80° C. A 1:12.5 dilution of b-Grb2 was used for immobilization and prepared by dilution in acetate buffer pH-5.0, with 5% DMSO. 1×PBS (phosphate buffered saline, pH 7.4) was used as the running buffer.
An immobilization wizard was used to facilitate immobilization targeting. For b-Grb2, 2500-5000 resonance units (RU) of protein were captured on the CM5 sensor chip. Small molecule ligands were serially diluted in running buffer to concentrations of 1.25 nM-1500 nM, as described in each sensorgram and injected at 25° C. at a flow rate of 30 μl/min for 1 minute and dissociation was monitored for an additional 3 minutes. Surface regeneration was not used. Samples of differing concentrations of small molecule ligands were injected in increasing concentration, with every injection being performed in duplicate within each experiment. In order to subtract background noise from each data set, all samples were also run over an unmodified reference surface and injections of running buffer were performed throughout every experiment (“double referencing”). Up to six data sets were fit to a simple 1:1 interaction model or to a surface heterogeneity model (“complex model”) for compound 41, using the global data analysis program CLAMP. Myszka, D. G.; Morton, T. A.; CLAMP: A biosensor kinetic data analysis program. Trends Biochem. Sci. 1998, 23, 149-150. The mean of the ratio and associated error were calculated according to known procedures. van Kempen, G. M.; van Vliet, L. J.; Mean and variance of ratio estimators used in fluorescence ratio imaging. Cytometry 2000, 39, 300-305.

[2] = biological target: T2, Grb2 SH2 domain-MBP fusion protein (Homo sapiens, UniProt P62993); experiment: ELISA-based determination of Grb2 SH2 domain-binding IC50 values; details: competition with HRP-SA-biotinylated-phosphopeptide complex
T2 construct: is added biotinylated Grb2 SH2 domain-MBP fusion protein; biotin (biotinylated)
Procedure: ELISA-Based Determination of Grb2 SH2 Domain-Binding IC50 Values. To multiwell plates pre-coated with streptavidin (SA) is added biotinylated Grb2 SH2 domain-MBP fusion protein. SH2 domain-fusion protein binds to the SA on the plate and unbound protein is then washed away and the plate is blocked using the commercial ELISA blocking agent, I-Block that contains detergent and casein (a milk protein). This blocking agent prevents subsequently-added constituents from sticking to the plastic well non-specifically. To the wells is then added horseradish peroxidase-(HRP)-SA-biotinylated-phosphopeptide as a pre-formed complex (termed “Complex”). [NOTE: The HRP-SA-biotinylated phosphopeptide complex is prepared ahead of time by combining a vast molar excess of SA-HRP with the biotinylated phosphopeptide to assure that all of the biotin sites are bound to SA-HRP before they are added to the well. This prevents those biotin sites from sticking to the SA coating on the plate, which would generate a signal even in the absence of biotinylated Grb2 SH2 domain-MBP fusion protein.] This complex binds to the Grb2 SH2 domain via the phosphopeptide. Unbound Complex is washed away before adding HRP substrate (OPD) to generate a color that is measured spectrophotometrically. Synthetic SH2 domain binding antagonists, at various concentrations, are added to wells in the presence of Complex to compete for HRP-SA-biotinylated-phosphopeptide binding to Grb2 SH2 domain protein. The intensity of the resulting color for each well as a function of the concentration of synthetic inhibitor added is recorded.

T2 sequence (P62993 60-152 limits assumed): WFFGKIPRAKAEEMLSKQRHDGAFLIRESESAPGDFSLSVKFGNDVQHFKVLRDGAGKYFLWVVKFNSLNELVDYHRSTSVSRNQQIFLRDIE
T1 sequence (P62993 60-152 limits assumed): as above

Row | SMILES | pKd [1] | pIC50 [2]
1 | Cc1ccc2c(ccn2CC2CC=CC(c3ccc(NC(=O)C(=O)O)cc3)C(CC(=O)O)C(=O)NC3(CCCCC3)C(=O)NC(CC(N)=O)C(=O)NC2)c1 (centres unmarked) [Compound 28] | 7.17 | 8.06
2 | Cc1ccc2c(ccn2CC2CC=CC(c3ccc(CP(=O)(O)O)cc3)C(CC(=O)O)C(=O)NC3(CCCCC3)C(=O)NC(CC(N)=O)C(=O)NC2)c1 (centres unmarked) [Compound 6] | 8.78 | 
3 | Cc1ccc2c(ccn2CC2CC=CC(c3ccc(C(C(=O)O)C(=O)O)cc3)C(CC(=O)O)C(=O)NC3(CCCCC3)C(=O)NC(CC(N)=O)C(=O)NC2)c1 (centres unmarked) [Compound 32] | 8.44 | 8.48

The next lines start with the values.

Row | pKd [1] | pIC50 [2] | SMILES
4 | 7.45 | 8.08 | Cc1ccc2c(ccn2CC2CC=CC(c3ccc(CP(=O)(O)Cc4ccccc4)cc3)C(CC(=O)O)C(=O)NC3(CCCCC3)C(=O)NC(CC(N)=O)C(=O)NC2)c1 (centres unmarked) [Compound 41]
5 |  | 7.65 | Cc1ccc2c(ccn2CC2CC=CC(c3ccc(CC(=O)O)cc3)C(CC(=O)O)C(=O)NC3(CCCCC3)C(=O)NC(CC(N)=O)C(=O)NC2)c1 (centres unmarked) [Compound 33]
